Laboratory results: paper PMC7689089, “Regorafenib combined with PD1 blockade increases CD8 T-cell infiltration by inducing CXCL10 expression in hepatocellular carcinoma” (Journal for Immunotherapy of Cancer, 2020)
Where two headings read alike, the source gives them in different places.

Key:
[1] = in vivo; settings: C57Bl/6, mouse, po; for AUC: Plasma AUC; for Cmax: Plasma Cmax
Experimental: (§3) From the orthotopic HCC and liver damage mouse models described above, blood samples were collected at 1, 4, 7 and 24 hours after once-daily oral administration of 5, 10 and 20 mg/kg regorafenib, respectively, for 5 days. Anti-PD1 antibody was given on days 1 and 4 with dose of 10 mg/kg by intraperitoneal injection. Blood samples were drawn from four to five animals per sampling time point. Regorafenib and its active metabolites M-2, M-4 and M-5 were analyzed in plasma samples using a validated bioanalytical liquid chromatography-tandem mass spectrometry.[25 33] Pharmacokinetic (PK) parameters were derived from the area under the plasma concentration versus time curve (AUC) using a non-compartmental analysis.
(§4) In addition, we evaluated PK parameters in HCC-bearing mice after regorafenib administration alone at doses of 5, 10 and 20 mg/kg or in combination with anti-PD1 therapy at the 10 mg/kg regorafenib dose for 5 days to achieve a steady state.

[2] = test system: STAT3; test: STAT1/STAT3 phosphorylation in RIL-175 HCC tissue; format: in vivo, mouse; settings: samples of the PK study
Experimental: (A) Changes induced by combination of regorafenib (10 mg/kg) with anti-PD1 antibody in immune-related pathways from the gene set enrichment analysis (GSEA) using curated gene sets in RIL-175 HCC model (see also online supplemental dataset S1 and figure S2E). (B, C) Changes induced by combination of regorafenib (10 mg/kg) with anti-PD1 antibody in STAT3 and STAT1 activity (B), showing an increased ratio of phosphorylated (p)-STAT1/p-STAT3 (normalized to total STAT1 and STAT3, respectively) by western blot analysis of whole RIL-175 HCC tissue (C) (n=4 mice). (D) Treatment with regorafenib increases CXCL10 expression by RIL-175 HCC cells in vitro after 36 hours, in a dose-dependent manner (n=6). Culture medium alone was used as a negative control (NC). […] (J, K) Combination therapy increases CXCL10 protein expression in whole RIL-175 tumor tissue 6 hours and 12 hours after in vivo when regorafenib treatment was used at doses of 10 mg/kg (R10) and 20 mg/kg (R20) (n=3) by western blot analysis (J); quantitative data of CXCL10/β-actin ratios are shown in (K). […]
(§1) Flow cytometry analysis. […] After preparation, cells were suspended in 2ml of PBS with 2% BSA, then counted using a cell counting plate (Kova slide) (if the final concentration of cell exceeded 10^7 cells/ml, a dilution factor was applied). […]

[3] = in vivo
Experimental: as §3, §4

[4] = Pharmacokinetic analysis of regorafenib and metabolites in plasma and tumor tissue of mice with HCC and liver damage; settings: n=4-5 mice
Experimental: as §3, §4

[5] = test system: RIL-175 cells; test: CXCL10 secretion by RIL-175 cells in vitro (ELISA); format: cell-based, mouse; settings: 36 hours
Text: To determine if CXCL10 was produced by murine HCC cells in response to regorafenib treatment, we next cultured RIL-175 cells with various concentration of regorafenib in vitro and measured the CXCL10 levels by ELISA. […]
(§2) treated by regorafenib as standard of care (HCC) (using the DFCI Protocol No.: 13-416 “Collection of Specimens and Clinical Data for Patients with Known or Suspected Solid Tumors”, PI, Dr. Juric, MGH) or in a phase I clinical trial of regorafenib monotherapy in acute myeloid leukemia (AML) patients (ClinicalTrials.gov Identifier: NCT03042689, PI, Hobbs, MGH). Both protocols have been IRB approved, and written consent was obtained from all patients.
Protein analyses. Western blotting was performed using antibodies against Stat1 (D1K9Y), phosphorylated (p)-Stat1 (Tyr701) (D4A7), Stat3 (79D7), p-Stat3 (Ser727) (Cell Signaling Technology, Danvers, MA), and IFN-γ (EPR1108) (Abcam, Cambridge, MA). Multiplexed protein array analysis was performed for protein extracts from whole tumors, using V-PLEX Proinflammatory Panel 1 Mouse Kit, V-PLEX Cytokine Panel 1 Mouse Kit and V-PLEX […] (Meso-Scale Discovery, Rockville, MD). For cell supernatant collection, 1x10^6 of RIL-175 cells were cultured in DMEM medium with 2% FBS and regorafenib was given in a various dose.
Supernatant was collected after 36hr of incubation and multiplexed protein array analysis was done using the same kit above.
Flow cytometry analysis. Tumor tissues were extracted from the mice, weighted and minced with a scalpel. Hank’s buffered salt solution (HBSS) with 1.5mg/ml of collagenase and hyaluronidase was added to the minced tissues and incubated for 30 min at 37°C. After incubation, digested tissues were passed through the 70μm cell strainer and washed with PBS with 2% BSA. After preparation, cells were suspended in 2ml of PBS with 2% BSA, then counted using a cell counting plate (Kova slide) (if the final concentration of cell exceeded 10^7 cells/ml, a dilution factor was applied). One hundred microliters of this suspension were used per subsequent flow cytometry staining. […]

[6] = test system: CXCL10; test: Plasma CXCL10 in patients before and after 2 weeks of regorafenib; format: in vivo, human; settings: patients with advanced HCC (n=1) and AML (n=7); after 2 weeks of treatment
Text: Formalin-fixed paraffin-embedded HCC tissue and blood samples were obtained with informed consent from a published cohort of deidentified patients who underwent liver resection at the department of Surgery at Fundeni Clinical Institute, Bucharest, Romania.[31] Furthermore, we collected blood samples with informed consent from patients treated by regorafenib as standard of care (HCC) or in a phase I clinical trial of regorafenib monotherapy in patients with acute myeloid leukemia (AML). Peripheral blood was collected before regorafenib therapy and after 2 weeks of treatment and processed in a Clinical Laboratory Improvement Amendments-certified facility of the Steele Laboratories at MGH. […]
as §2
Protein analyses. […]
as §1

## CNC(=O)c1cc(Oc2ccc(NC(=O)Nc3ccc(Cl)c(C(F)(F)F)c3)c(F)c2)ccn1 [regorafenib]
[1]; 5 mg/kg
  AUC: 1.45 µg·h/mL
  Cmax: 0.108 µg/mL
[1]; 10 mg/kg
  AUC: 2.16 µg·h/mL
  Cmax: 0.201 µg/mL
[1]; 10 mg/kg, Plasma Tmax
  Tmax: 1 h
[1]; 10 mg/kg, Tumor Tmax
  Tmax: 7 h
[1]; 20 mg/kg
  AUC: 5.75 µg·h/mL
  Cmax: 0.485 µg/mL
[2]
  Phosphorylated (p)STAT3 levels in HCC tissues: inhibited
[3]; C57Bl/6, mouse, po, 5 mg/kg
  Tumor AUC: 2.32 µg·h/mL
  Tumor AUCnorm: 0.465 kg·h/L
  Tumor Cmax: 191 µg/kg
[3]; C57Bl/6, mouse, po, 10 mg/kg
  Plasma AUC: 2.14 µg·h/mL
  Plasma Cmax: 0.19 µg/mL
  Tumor AUC: 4.67 µg·h/mL
  Tumor AUCnorm: 0.467 kg·h/L
  Tumor Cmax: 291 µg/kg
[3]; C57Bl/6, mouse, po, 20 mg/kg
  Tumor AUC: 7.93 µg·h/mL
  Tumor AUCnorm: 0.396 kg·h/L
  Tumor Cmax: 575 µg/kg
[3]; mouse
  Cmax in the tumor tissue, combination group versus R10 group: higher
  Plasma AUC0–24 and Cmax versus dose: dose-proportional
  Tumor AUC0–24 and Cmax versus dose: dose-proportional increase
[3]; mouse, po, 5 mg/kg
  Plasma AUCnorm: 0.290 kg·h/L
[3]; mouse, po, 10 mg/kg
  Plasma AUCnorm: 0.241 kg·h/L
[3]; mouse, po, 20 mg/kg
  Plasma AUCnorm: 0.287 kg·h/L
[4]
  Plasma maximum concentration (Cmax), R10 alone versus R10+P: No difference
[5]
  Regorafenib concentration at peak CXCL10 secretion: 1 µM
[5]; various concentrations, n=6
  Level of CXCL10 secreted by RIL-175 cells: significantly increased
[6]
  Concentration of plasma CXCL10: increased concentration
